Results taken from patent publication US8513232B2, “Substituted spirocyclic piperidine derivatives as histamine-3 (H3) receptor ligands” (Cephalon, Inc., priority 2008, dated 2013).

Key:
human H3 receptor = target: T1, human H3 receptor (Homo sapiens, UniProt Q9Y5N1); assay: Human H3 radioligand binding ([3H]-N-alpha-methylhistamine, SPA); conditions: Human H3 binding, Table B, Examples 136-362; read-out: hum H3 binding Ki
T1 construct: expressed in transfected cells
Outline: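 SPA competition binding on membranes from CHO cells stably expressing human H3 receptor (10 μg protein/well) with ~1 nM [3H]-N-alpha-methylhistamine and compound at 0.01 nM-30 μM. Incubation 4 h at room temperature in 50 mM Tris-HCl pH 7.4, 5 mM MgCl2, 0.1% BSA; non-specific binding defined with 10 μM clobenpropit.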

[1] = target: T2, rat histamine H3 receptor (Rattus norvegicus, UniProt Q9QYN8); assay: Rat H3 radioligand binding ([3H]-N-alpha-methylhistamine, SPA); conditions: Rat H3 binding, Table B, Examples 136-362; read-out: rat H3 binding Ki
T2 construct: encoding the entire 445-amino-acid rat histamine H3 receptor; expressed in transfected cells; membrane preparation
T2 sequence (Q9QYN8 whole entry): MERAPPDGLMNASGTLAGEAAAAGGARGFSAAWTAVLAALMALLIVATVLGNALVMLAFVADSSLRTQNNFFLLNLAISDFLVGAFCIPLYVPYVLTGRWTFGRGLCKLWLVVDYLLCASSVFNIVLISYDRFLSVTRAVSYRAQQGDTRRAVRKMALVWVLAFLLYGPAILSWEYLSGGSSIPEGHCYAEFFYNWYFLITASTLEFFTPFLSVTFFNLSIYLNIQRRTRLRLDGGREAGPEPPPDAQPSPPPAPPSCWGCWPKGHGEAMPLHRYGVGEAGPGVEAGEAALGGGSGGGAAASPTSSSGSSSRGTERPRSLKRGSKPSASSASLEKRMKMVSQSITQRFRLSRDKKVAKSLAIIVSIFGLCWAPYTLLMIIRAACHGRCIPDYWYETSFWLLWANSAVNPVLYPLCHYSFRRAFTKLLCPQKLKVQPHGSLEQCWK
Outline: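 Membranes from CHO-A3 cells stably expressing full-length rat H3 receptor (10 μg protein/well) incubated 4 h at room temperature, protected from light, with ~1 nM [3H]-N-alpha-methylhistamine and compound (0.01 nM-30 μM) in 50 mM Tris HCl pH 7.4, 5 mM MgCl2, 0.1% BSA. Binding read by SPA; 10 μM clobenpropit defined non-specific binding.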

T1 sequence (Q9Y5N1 whole entry): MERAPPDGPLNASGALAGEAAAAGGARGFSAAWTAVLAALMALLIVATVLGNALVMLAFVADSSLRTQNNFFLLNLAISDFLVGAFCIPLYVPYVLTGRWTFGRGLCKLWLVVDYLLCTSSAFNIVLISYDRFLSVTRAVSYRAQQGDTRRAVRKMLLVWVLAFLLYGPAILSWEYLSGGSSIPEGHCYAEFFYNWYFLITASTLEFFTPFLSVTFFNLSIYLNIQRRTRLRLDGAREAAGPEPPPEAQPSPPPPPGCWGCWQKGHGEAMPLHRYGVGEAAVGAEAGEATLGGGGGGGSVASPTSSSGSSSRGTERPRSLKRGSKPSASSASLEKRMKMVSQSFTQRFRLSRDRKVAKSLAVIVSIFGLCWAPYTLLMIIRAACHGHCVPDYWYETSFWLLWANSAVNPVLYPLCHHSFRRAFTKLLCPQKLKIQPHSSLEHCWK

| Compound | Ki (human H3 receptor) [nM] | Ki [1] [nM] | melting point [°C] |
| --- | --- | --- | --- |
| O=C(c1ccc(-c2ccc3c(c2)COC2(CCN(C4CCC4)CC2)O3)cc1)N1CCC[C@@H](O)C1 [Example 201] | < 200 | < 200 | 85 to 87 |
| COCCNC(=O)c1ccc(-c2ccc3c(c2)COC2(CCN(C4CCC4)CC2)O3)cc1F [Example 202] | < 200 | < 200 | 107 to 108.5 |
| O=C(Nc1ccc2c(c1)COC1(CCN(C3CCC3)CC1)O2)c1ccnnc1 [Example 203] | < 200 | < 200 | 206 to 207 |
| CNC(=O)c1ccc(-c2ccc3c(c2)COC2(CCN(C4CCC4)CC2)O3)cc1C [Example 205] | < 200 | < 200 | 174 to 176.2 |
| O=C(c1ccc(-c2ccc3c(c2)CCC2(CCN(C4CCC4)CC2)O3)cc1)N1CCC(O)CC1 [Example 206] | < 200 | < 200 | 90.4 to 92.6 |
| O=C1N(c2ccccc2)CCN1c1ccc2c(c1)COC1(CCN(C3CCC3)CC1)O2 [Example 207] | < 200 | < 200 | 195 to 197 |
| CCOC(=O)c1ccc(NC(=O)Nc2ccc3c(c2)COC2(CCN(C4CCC4)CC2)O3)cc1 [Example 208] | < 200 | 200 to 1000 | 188 to 189 |
| COCCNC(=O)c1ccc(-c2ccc3c(c2)CCC2(CCN(C4CCC4)CC2)O3)cn1 [Example 209] | < 200 | < 200 | 218 to 219 |
| O=C1N(c2ccncc2)CCN1c1ccc2c(c1)CCC1(CCN(C3CCC3)CC1)O2 [Example 210] | < 200 | < 200 | 208 to 210 |
| CO[C@H]1CCN(C(=O)c2ccc(-c3ccc4c(c3)CCC3(CCN(C5CCC5)CC3)O4)cc2)C1 [Example 211] | < 200 | < 200 | 70.2 to 71 |
| O=C(c1ccc(-c2ccc3c(c2)CCC2(CCN(C4CCC4)CC2)O3)cc1)N1CCC[C@H](O)C1 [Example 212] | < 200 | < 200 | 82 to 83.3 |
| O=C(c1ccc(Nc2ccc3c(c2)COC2(CCN(C4CCC4)CC2)O3)cc1)N1CC[C@@H](O)C1 [Example 215] | < 200 | < 200 | 114 to 116 |
| CS(=O)(=O)c1ccccc1C(=O)Nc1ccc2c(c1)COC1(CCN(C3CCC3)CC1)O2 [Example 216] | 200 to 1000 | < 200 | 143 to 145 |
| COCCNC(=O)c1ccc(-c2ccc3c(c2)CCC2(CCN(C4CCC4)CC2)O3)cc1F [Example 217] | < 200 | < 200 | 190 to 192 |
| CNC(=O)c1cnc(-c2ccc3c(c2)CCC2(CCN(C4CCC4)CC2)O3)s1 [Example 218] | < 200 | < 200 | 201 to 203 |
| CNC(=O)c1c(F)cc(-c2ccc3c(c2)COC2(CCN(C4CCC4)CC2)O3)cc1F [Example 220] | < 200 | < 200 | 212.6 to 214.2 |
| O=C(Nc1ccc2c(c1)COC1(CCN(C3CCC3)CC1)O2)c1ccncc1Cl [Example 221] | < 200 | < 200 | 192 to 193 |
| O=C(c1ccc(-c2ccc3c(c2)COC2(CCN(C4CCC4)CC2)O3)cc1F)N1CCC(O)CC1 [Example 222] | < 200 | < 200 | 105.2 to 106.9 |
| N#Cc1ccc(Oc2ccc3c(c2)CCC2(CCN(C4CCC4)CC2)O3)cc1 [Example 223] | < 200 | < 200 | 237 to 239 |
| N#Cc1ccc(C(=O)Nc2ccc3c(c2)CCC2(CCN(C4CCC4)CC2)O3)cc1 [Example 224] | < 200 | < 200 | 186 to 188 |
| CNC(=O)c1ccc(-c2ccc3c(c2)COC2(CCN(C4CCC4)CC2)O3)cc1Cl [Example 225] | < 200 | < 200 | 276 to 277 |
| CNC(=O)c1c(F)cc(-c2ccc3c(c2)CCC2(CCN(C4CCC4)CC2)O3)cc1F [Example 226] | < 200 | < 200 | 110 to 112 |
| Cn1cc(C(=O)Nc2ccc3c(c2)COC2(CCN(C4CCC4)CC2)O3)cn1 [Example 227] | < 200 | 200 to 1000 | 227 to 228 |
| O=c1cccnn1-c1ccc2c(c1)COC1(CCN(C3CCC3)CC1)O2 [Example 228] | 200 to 1000 | 200 to 1000 | 173 to 174 |
| O=C1N(c2ccccc2)CCN1c1ccc2c(c1)CCC1(CCN(C3CCC3)CC1)O2 [Example 229] | < 200 | < 200 | 182 to 185 |

Other lines, results leading:

| Ki (human H3 receptor) [nM] | Ki [1] [nM] | melting point [°C] | Compound |
| --- | --- | --- | --- |
| < 200 | < 200 | 66.8 to 67.5 | COC1CCN(C(=O)c2ccc(-c3ccc4c(c3)CCC3(CCN(C5CCC5)CC3)O4)cc2)CC1 [Example 230] |
| < 200 | < 200 | 168.5 to 169.9 | Cc1cc(-c2ccc3c(c2)COC2(CCN(C4CCC4)CC2)O3)ccc1C(=O)NCCO [Example 231] |
| < 200 | < 200 | 144.2 | CNC(=O)c1ccc(-c2ccc3c(c2)CCC2(CCN(C4CCC4)CC2)O3)cc1Cl [Example 232] |
| < 200 | < 200 | 59.8 to 60.9 | COCCNC(=O)c1ccc(-c2ccc3c(c2)CCC2(CCN(C4CCC4)CC2)O3)cc1C [Example 233] |
| < 200 | < 200 | 56 to 58 | Cc1ccc(C#N)c(Nc2ccc3c(c2)COC2(CCN(C4CCC4)CC2)O3)n1 [Example 236] |
| < 200 | < 200 | 94.7 to 95.6 | CNC(=O)c1ccc(-c2ccc3c(c2)CCC2(CCN(C4CCC4)CC2)O3)cc1C [Example 237] |
| < 200 | < 200 | 78.5 to 79.8 | Cc1cc(-c2ccc3c(c2)CCC2(CCN(C4CCC4)CC2)O3)ccc1C(=O)NCCO [Example 238] |
| < 200 | < 200 | 102.8 to 104.6 | O=C(c1ccc(-c2ccc3c(c2)CCC2(CCN(C4CCC4)CC2)O3)cc1F)N1CCC(O)CC1 [Example 240] |
| < 200 | < 200 | 232 to 234 | c1ccc(Oc2ccc3c(c2)CCC2(CCN(C4CCC4)CC2)O3)nc1 [Example 241] |
| < 200 | < 200 | 222 to 224 | O=C1N(c2ccc(C(F)(F)F)nc2)CCN1c1ccc2c(c1)COC1(CCN(C3CCC3)CC1)O2 [Example 242] |
| < 200 | < 200 | 169 to 171 | Cc1ncoc1C(=O)Nc1ccc2c(c1)CCC1(CCN(C3CCC3)CC1)O2 [Example 243] |
| < 200 | < 200 | 243 to 245 | CN(C)C(=O)c1ccc(N2CCN(c3ccc4c(c3)COC3(CCN(C5CCC5)CC3)O4)C2=O)cc1 [Example 244] |
| < 200 | < 200 | 227 to 228 | O=C(Nc1cccc(F)c1)Nc1ccc2c(c1)COC1(CCN(C3CCC3)CC1)O2 [Example 245] |
| < 200 | < 200 | 80 to 82 | CNC(=O)c1ccc(-c2ccc3c(c2)CCC2(CCN(C4CCC4)CC2)O3)cc1C#N [Example 246] |
